# Experiments:
# [1] = test system: non-alcoholic fatty liver model mice (非酒精性脂肪肝模型小鼠); assay: Improvement of non-alcoholic fatty liver in NASH model mice (Western diet + CCl4), HE staining of liver; assay type: in vivo, C57BL/6 mouse; details: 10 mg/kg, gavage, once daily, 4 weeks; compared with obeticholic acid 20 mg/kg
# [2] = test system: non-alcoholic hepatitis (非酒精性肝炎(NASH)); details: phase IIb study, 72 weeks of treatment; cited from earlier work
# [3] = phase III clinical study; cited from earlier work
# FXR receptor (FXR受体) = molecular target: T1, FXR receptor (FXR受体) (Homo sapiens, UniProt Q96RI1); details: cited from earlier work
# T1 sequence (Q96RI1 1-486): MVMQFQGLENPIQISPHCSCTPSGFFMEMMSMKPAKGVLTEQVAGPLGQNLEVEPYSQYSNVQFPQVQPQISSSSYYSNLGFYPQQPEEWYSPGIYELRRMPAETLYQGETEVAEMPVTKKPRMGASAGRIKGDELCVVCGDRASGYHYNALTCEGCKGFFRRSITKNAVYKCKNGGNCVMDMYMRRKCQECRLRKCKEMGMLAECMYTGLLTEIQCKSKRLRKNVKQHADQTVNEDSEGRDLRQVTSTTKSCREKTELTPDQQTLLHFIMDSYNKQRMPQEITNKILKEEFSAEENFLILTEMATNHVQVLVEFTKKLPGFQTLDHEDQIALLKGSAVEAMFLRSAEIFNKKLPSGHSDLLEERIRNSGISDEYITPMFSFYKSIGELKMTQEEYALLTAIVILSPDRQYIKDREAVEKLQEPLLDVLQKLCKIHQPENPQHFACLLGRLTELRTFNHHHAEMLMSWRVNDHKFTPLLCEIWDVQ
# [4] = clinical studies; cited from earlier work
# [5] = test system: non-alcoholic fatty liver disease (非酒精性脂肪性肝病(NAFLD)); details: phase IIa clinical study; cited from earlier work
SMILES,ballooning [1],degree of hepatic steatosis [1],improvement of non-alcoholic fatty liver [1],inflammatory infiltration [1],histopathology of NASH [2],"liver fibrosis, histological features of steatohepatitis and liver biochemical indicators [3]",FXR receptor agonist activity compared with the endogenous ligand CDCA (FXR receptor (FXR受体)),side effects [4],insulin sensitivity [5],other metabolic effects [5]
"CC(C)c1onc(-c2ccccc2OC(F)(F)F)c1CN1CCC(COc2ccc(C(=O)O)cc2)CC1 [I-9, 4-(1-(5-异丙基-3-(2-三氟甲氧基苯基)异恶唑-4-甲基)哌啶-4-甲氧基)苯甲酸]",得到更明显的改善,得到更明显的改善,明显优于奥贝胆酸,得到更明显的改善,–,–,–,–,–,–
CC[C@H]1[C@@H](O)[C@@H]2[C@H](CC[C@]3(C)[C@@H]([C@H](C)CCC(=O)O)CC[C@@H]23)[C@@]2(C)CC[C@@H](O)C[C@@H]12 [奥贝胆酸],–,–,–,–,对非酒精性肝炎(NASH)的组织病理学的改进也有益,可以改善肝纤维化、脂肪性肝炎的组织学特征以及肝脏的生化指标,比内源性配体CDCA活性更高,严重的瘙痒、肝毒性、心血管风险等副作用,有显著改善,有益作用

# — CN115504972A, “异恶唑类衍生物、其制备方法及其作为药物的用途” (Guangdong Pharmaceutical University, priority 2021, dated 2022)
